Patent publication US20140234212A1, “Targeted Buccal Delivery of Agents” (Massachusetts Institute of Technology, priority 2013, published 2014)
Like-named read-outs stand apart in the source and are kept apart here. One block for each compound: values may come before it.

Experiments:
[1] = format: in vitro ADME, pig; conditions: not told
Protocol: FITC labeled chitosan NPs were used.
b) Ethanol (100% Ethanol diluted with 50% PBS) c) 2-Dimethylaminopropionic acid dodecyl ester (DDAIP) (“DDAIP”) (2 g/100 ml diluted in PBS) d) Ethanol+DDAIP (100% Ethanol diluted with 4 g/100 ml of DDAIP to achieve the same final working concentration of Ethanol and DDAIP as used in (b) and (c) respectively. e) TDCA (100 mM diluted in PBS)
Fresh pig tongue was obtained from the Butcher shop at Cambridge. The middle portion of the tongue was selected for these studies. 5 designated sections were chosen on this portion and 0.75 mL of each of these PEs were applied at each of these sections, followed by the addition of the wafers (25 mg each) with additional 0.75 mL of PEs on top of the wafers. The incubation was done in the dark at RT for 1 hour. The tongue was then washed with water and all the wafers were removed from their designated sections. The respective sections were individually cut and embedded into an OCT for sectioning using a microtome. 50 microns slices were cut from each of these sections and 2 slices were placed on slides. The slides were kept submerged in water for 3 hours to remove any bound OCT as it interferes with the image quality. Following that, each of the slides from different sections were mounted with cover slips using a DAPI containing mounting media and imaged using a fluorescence microscope. Images were taken at 4×, 10× and 20× in both FITC and DAPI channels. In addition, slices of untreated tongue were also cut and imaged to account for inherent fluorescence of the tongue. However, before conducting permeation studies, many experiments were performed to discover the optimal concentrations of PEs that would not result in significant modifications to out current wafer synthesis protocol and allow seamless integration into the wafer.

[2] = tested on: HCPC 1 (hamster cheek pouch carcinoma) cells; assay: MTS cell viability assay; format: cell-based; conditions: HCPC 1 cells, 48 h
Protocol: A cell viability study of 33% cisplatin-loaded nanoparticles was also conducted using the tetrazolium compound (3-(4,5-dimethylthiazol-2-yl)-5-(3-carboxymethoxy phenyl)-2-(4-sulfophenyl)-2H-tetrazolium inner salt, MTS. When incorporated by the cells, MTS is bioreduced by metabolically active cells. The amount of […] is directly proportional to the number of living cells in culture.

[3] = tested on: hamster cheek pouch carcinoma (HCPC1) tumors; assay: Tumor inhibition and weight change in HCPC1 allografted hamsters; format: in vivo, Golden Syrian hamsters; conditions: 1.15 mg/kg cisplatin equivalent; sponge topically, free cisplatin intraperitoneally
Protocol: Golden Syrian hamsters, 71-80 g, were anesthetized and prepared for implantation of the tumor cells. Hamster cheek pouch carcinoma (HCPC 1) cells were collected from culture, and 1×10^8 cells suspended in PBS buffer were then injected subcutaneously into the cheek pouch of a hamster. After 7 days when tumors reached around 100 mm^3 in size, hamsters were divided into 4 groups, minimizing weight and tumor size difference. […] Two doses were administrated with 3-day interval. After treatments, the animals were monitored closely, and measurements of the tumor size and body weight for each animal were performed at regular intervals using calipers without knowledge of which injection each animal had received. The tumor volume for each time point was calculated according to the formula, (length)×(width)^2/2, where the long axis is the length, the short axis is the width.

- Permeation Depth ([1]; pig, 1 hour): 200 microns
- depth permeated by the NPs ([1]; pig, 1 hour, 2 g/100 ml): 200 μm
SMILES: CCCCCCCCCCCCOC(=O)C(C)N(C)C (stereo not shown) [DDAIP, 2-Dimethylaminopropionic acid dodecyl ester]

- Permeation Depth ([1]; pig, 1 hour): 140 microns
SMILES: CCO [Ethanol]

- Permeation Depth [1]: 100 microns
SMILES: C[C@H](CCC(=O)NCCS(=O)(=O)O)[C@H]1CC[C@H]2[C@@H]3CC[C@@H]4C[C@H](O)CC[C@]4(C)[C@H]3C[C@H](O)[C@]12C [TDCA]

SMILES: N.N.[Cl][Pt][Cl] [free cisplatin, cis-diamminedichloroplatinum(ll)]
- IC50 [2]: ~60 nM
- tumor inhibition [3]: comparable decrease in tumor size
- weight change [3]: significant weight loss
